The text below walks through data of patent US20070117864A1, “Composition for preventing and treating hepatoma” (Tokyo University of Agr. & Tech. TLO Co., Ltd., priority 2003, published 2007).

What all share (assay type): cell-based, rat
Assay [1] has as its system AH109A cells. Nature of the assay: proliferative activity of hepatoma cells by [3H]thymidine incorporation. On the procedure:
The proliferative activity of the AH109A cells was evaluated by measuring the incorporation of [^3H]thymidine (20 Ci/mmol, New England Nuclear, Boston, USA) into acid-insoluble fraction, namely, DNA [Yagasaki K., Tanabe T., Ishihara K., and Funabiki R., (1992) Modulation of the proliferation of cultured hepatoma cells by urea cycle-related amino acids. In: Murakami, H., Shirahata S., and Tachibanana H., (ed.) Animal Cell Technology: Basic and Applied Aspects. Vol. 4 (pp. 257-263). Kluwer Academic Publisher, Dordrecht/Boston/London]. […]
The plate was washed twice with 400 μl of 10% TCA; the wash solution was then recovered in Maruemu tubes, and was again subjected to centrifugally separation for 5 minutes at 3000 rpm (1500×g), 4° C., and then solubilized in 0.2N NaOH in 0.1% SDS. was added to the 48-well plate and the cells remaining in the Maruemu tubes at the respective rates of 150 μl and 50 μl, and these were allowed to stand for 30 minutes inside an incubator at 37° C., to dissolve the cells completely. […] 5 ml of an NT scintillator (700 ml of toluene, 300 ml of nonion, 4 g of DPO) was added, and 150 μl of 1N HCl was further added thereto, and it was confirmed that the liquid of the preparation thoroughly shaken had become transparent; then, the radioactivity of the preparation was measured with a liquid scintillation spectrophotometer (LS6500; Beckman, Fullerton, Calif., USA). […]

Assay [2] concerns AH109A cells. In words: cell cycle analysis of hepatoma cells by PI staining and flow cytometry. On the procedure: The effects of 6.25 μM and 12.5 μM ENL on the cell cycle of AH109A cells were analyzed. The AH109A cells were inoculated into a 6-well plate (NUNC) at the density of 2.5×10^5 cells per well, and the cells were cultured for 0, 24 and 48 hours at 37° C. in a CO2 incubator. The AH109A cells cultured under the respective treatment conditions were recovered in 2-ml sampling tubes (Nippon Genetex, Tokyo); these cells were centrifuged for 5 minutes at 1000 rpm (190×g), 4° C., and then washed twice with PBS (−). Subsequently, 300 μl of a PI solution (1 mg propidium iodide (SIGMA)/20 ml 0.1% Triton X-100, 0.1% sodium citrate (Wako Pure Chemical Industries)) was added, and the preparation was dyed by allowing the preparation to kept quietly on ice for 30 minutes with the light blocked. The cell cycle was analyzed with a flow cytometer (EPICS ELITE ESP; Beckman-Coulter, Hialeah, Fla., USA).

The test system of a further assay is M-cells. Nature of the assay: proliferative activity of M-cells by [3H]thymidine incorporation. The settings on record: in vitro. On the procedure:
Male Donryu rats (4 to 10 weeks of age) were anesthetized by intraperitoneal injection of Nembutal at the dose of 5 mg/0.1 ml/100 g of body weight, and blood was collected by cutting the carotid artery. Subsequently, following disinfection using a hibiten solution, the abdomens of the animals were opened in a clean bench, and the mesenteric membranes were removed one by one and washed with PBS (−), and were then recovered in another 15 ml of PBS (−). The same amount of 0.5% trypsin in PBS (−) was added, and the preparation was agitated for 20 minutes at 37° C. Subsequently, 5 ml of a 10% CS/MEM was added, to stop the trypsin reaction. Then, the preparation was subjected to pipetting by means of a Komagome Pipette, and filtrated using a metal mesh. The filtrate was centrifuged for 10 minutes at 1500 rpm (440×g), 4° C., and was washed with PBS (−). The collected cells were inoculated into a 6 cm dish with an attached grid (2 mm square) at the density of 1.5 to 2.0×10^5 cells. The medium of 10% CS/MEM was used, and the medium was changed on the day following collection and every other day thereafter. […] Subsequently, the proliferation activity was measured as above-mentioned in (3).

Setting [3] is: ENL treatment for 24 hours, versus 0 μM control.

Turning to `O=C1OCC(Cc2cccc(O)c2)C1Cc1cccc(O)c1` (stereo not drawn) [Enterolactone, enterolactone], the “proliferation of AH109A cells” value in the assay on AH109A cells [1] (ENL 50 μM, in vitro) is “almost completely suppressed”. Further, in the assay on AH109A cells [1] (in vitro comparison), the “inhibitory effect on proliferation, AH109A cells compared with normal M-cells” value is “stronger inhibitory effect against AH109A cells than normal M-cells”. Besides, the “effect on the cell cycle” value in the assay on AH109A cells [2] (ENL treatment for 0 hours, various concentrations) is “no effect”. In addition, in the assay on AH109A cells [2] (setting [3]), the “proportion of the G1 phase” value was “increase” and the “proportion of the S phase” value is “decrease”. Further, the “proliferation of M-cells (normal cells)” value in the assay with M-cells was “inhibit the proliferation of M-cells in a dose-dependent manner”.
